Measured values reported in patent US11707440B2 (priority 2017, dated 2023).

Legend:
[1] = test system: female Sprague-Dawley rats, PCG/RSC of the brain; experiment: Single dose neurotoxicity study, intranasal instillation; conditions: single dose, 72 mg
Description: Esketamine HCl was instilled intranasally at doses of 0 (vehicle), 36, 54 or 72 mg (expressed as esketamine base) to female rats on a single day. The dose levels were obtained by 2, 3 or 4 subsequent intranasal instillations, respectively, into both nostrils at a volume of 50 μL per nostril. At each instillation, the second nostril was dosed immediately after the first nostril. The interval between subsequent instillations into both nostrils was 5 minutes.
The vehicle control group received 4 subsequent intranasal instillations of the vehicle into both nostrils (50 μL per nostril) with 5-minute intervals.
The injection volume was 5 mL/kg.
The vehicle- and the 36 and 54 mg-dosed groups consisted of 24 animals per group, while the 72 mg-dosed and positive control groups involved 30 animals per group. Four satellite animals were added to the esketamine HCl-dosed groups of main study animals for toxicokinetic (TK) purposes. In these animals the plasma exposure to esketamine was measured on the day of dosing at various time points up to and including 24 hours after the first instillation.
Prior to the perfusion, rats were anesthetized with isoflurane. After injection of 0.1 ml heparin, the blood of the rat was flushed out with a physiological saline solution by intraarterial insertion of a needle in the abdominal aorta. Thereafter the rat was perfused with glutaraldehyde 3% in potassium phosphate 0.09M and 1.4% sucrose. Due to logistic constraints at maximum 30 animals could undergo the whole-body perfusion procedure on a given day. Therefore, a staggered start of treatment was applied to all 5 groups of main study animals. Consequently, subgroups of 4 main study animals of the vehicle- and 36 and 54 mg-dosed groups, and 5 main study animals of the 72 mg-dosed and positive control groups, were dosed on 6 consecutive days, respectively.
The vehicle control, positive control, and esketamine HCl-dosed animals were sacrificed at either 48 hours (i.e., the first 12 or 15 rats per group) or 96 hours after the dose administration time (i.e., the last 12 or 15 rats per group). The brain tissue of the vehicle control-, positive control- and esketamine HCl-treated rats were processed at the same time and handled in the same way in batches of 4 or 5 animals per group.
Furthermore, clinical observations were recorded for the esketamine HCl-dosed rats on the day of dosing at 0 till 5 minutes, 15 and 30 minutes, and at 1, 2, 4, 6 hours post-dose, at the end of the working day and at 24 hours after the last instillation in the single dose study and on the first day of dosing, after one week and towards the end of the dosing period in the repeated dose study. Body weight and body weight gain were measured daily. Food consumption was measured weekly in the repeated dose study.
On the day of terminal kill, a complete physical examination was performed on the rats in fasted condition and body weight was recorded. The surviving animals were anaesthetized by inhalation of an isoflurane (IsoFlo® Zoetis, Belgium)/oxygen mixture and killed by exsanguination via the carotid artery. […] All terminally killed rats or those killed pre-terminally were perfused with 4% paraformaldehyde in the single dose study and with glutaraldehyde 3% in potassium phosphate buffer 0.09 M with 1.4% sucrose in the repeated dose study.
Brain tissue was sampled and processed routinely. The trimmed and embedded tissue was sectioned and stained with hematoxylin-eosin (HE). Histoprocessing and staining were carried out in three batches of 4 animals per group (each batch thus containing 4 animals from vehicle control-, positive control- and the three esketamine HCl-treated groups). In the single dose study duplicate brain sections were stained with Fluoro-Jade (FJ).
All tissues showing gross abnormalities were examined macroscopically.

[2] = test system: patients with treatment-resistant depression (TRD); experiment: GAD-7, Example 7; format: in vivo, human
Description: Overall illness severity was assessed on the Clinical Global Impression of Severity (CGI-S) scale (Guy, “ECDEU Assessment Manual for Psychopharmacology-Revised (DHEW Publ No ADM 76-338)”, Rockville, Md.: U.S. Department of Health, Education, and Welfare, Public Health Service, Alcohol, Drug Abuse, and Mental Health Administration, NIMH Psychopharmacology Research Branch, Division of Extramural Research Programs; 1976, pp 218-222). Participants assessed their severity of anxiety on the Generalized Anxiety Disorder 7-item (GADS-7) Scale (See, Tables 157 and 15). See, Spitzer, “A brief measure for assessing generalized anxiety disorder—the GAD-7”, Arch. Intern. Med., 2006, 166(10):1092-1097.

[3] = test system: subjects with MDD at imminent risk for suicide; format: in vivo, human; conditions: esketamine 84 mg; safety analysis set
Description: Of the 68 subjects in the all randomized analysis set, 19 (27.9%) subjects discontinued from the double-blind phase. More subjects in the esketamine 84 mg group discontinued due to adverse events (5 subjects in the esketamine 84 mg group versus 1 subject in the placebo group) whereas more subjects in the placebo group discontinued due to lack of efficacy (4 subjects in the placebo group versus 1 subject in the esketamine 84 mg group).
More subjects in the esketamine 84 mg group than in the placebo group had all 8 dosing sessions (74.3% vs. 64.5%). Five subjects reduced their dose of esketamine from 84 mg to 56 mg. Of these, 3 reduced their dose due to an adverse event and 2 had their dose reduced in error and were considered major protocol deviations.

[4] = test system: patients with treatment-resistant depression (TRD); experiment: Response, remission and relapse rates (MADRS), Example 7; format: in vivo, human; conditions: Period 2 endpoint
Text: A similar trend for remission (defined as MADRS total score≤10) was observed across groups. […] Response and remission rates at the end of the open-label and follow-up phases are presented by type of treatment in the double-blind and open-label phases in Table 161.

CN[C@]1(c2ccccc2Cl)CCCCC1=O [esketamine, (S)-2-(2-chlorophenyl)-2-(methylamino)cyclohexanone]
AUC-based safety margin compared with the maximum 84 mg clinical dose [1]: ~86 fold | Cmax-based safety margin compared with the maximum 84 mg clinical dose [1]: approximately 60 fold | GAD-7 LS mean difference from placebo ([2]; 28 mg, Period 1): −0.21 | GAD-7 change from baseline, LS mean ([2]; 28 mg, Period 1, first day to day 8): −1.5 | GAD-7 change from baseline, LS mean ([2]; 28 mg, Period 2, first day to day 8 of period): −1.6 | GAD-7 LS mean difference from placebo ([2]; 56 mg, Period 1): −1.40 | GAD-7 change from baseline, LS mean ([2]; 56 mg, Period 1, first day to day 8): −3.1 | GAD-7 LS mean difference from placebo ([2]; 56 mg, Period 2): 0.60 | GAD-7 change from baseline, LS mean ([2]; 56 mg, Period 2, first day to day 8 of period): 1.0 | GAD-7 change from baseline, LS mean ([2]; 84 mg, Period 1, first day to day 8): −5.1 | GAD-7 change from baseline, LS mean ([2]; 84 mg, Period 2, first day to day 8 of period): −0.9 | Dose decreased during double-blind: No [3]: 29 (82.9%) | Dose decreased during double-blind: Yes [3]: 6 (17.1%) | Proportion of responders (≥50% improvement from baseline in MADRS total score) ([4]; 56 mg): 36.4% | Proportion of responders (≥50% improvement from baseline in MADRS total score) ([4]; 84 mg): 50.0%
